Data published in patent US20250179055A1, “Substituted 2-(pyrrolidine-3-yl)acetic acid derivative, preparation method and use thereof” (INNOVSTONE THERAPEUTICS LIMITED, priority 2023, published 2025).

Tests used:
[1] = molecular target: Lp(a) assembly in HepG2 cells overexpressing ApoA protein (Homo sapiens (Human), UniProt P08519); assay: ELISA assay on screening Lp(a) assembly inhibition; type: cell-based; conditions: HepG2 cells overexpressing ApoA protein, 24 h, ELISA of supernatant
In short: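 HepG2 cells overexpressing ApoA treated with diluted compounds for 24 h at 37 °C, 5% CO2; EACA (10 μL of 1.5 M) added before harvesting supernatant. Secreted Lp(a) quantified by sandwich ELISA; IC50 from four-parameter Hill fit of % inhibition versus concentration.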

serum Lp(a) = assay: Humanized mouse Lp(a) inhibition test; type: in vivo, humanized Lp(a) transgenic mouse; conditions: blood 8 h after last dose, humanized Lp(a) mice
Protocol: The in vivo pharmacodynamics of the compounds in reducing Lp(a) was evaluated in a humanized Lp(a) transgenic mouse model. Lp(a) mice were obtained by crossing mice expressing humanized apoB-100 with mice expressing humanized apo(a) containing 16 Kringle repeats. Female mice aged 8-9 weeks were selected for the test. Housing conditions: standard light cycle (12 h light/12 h dark), temperature 20-25° C., humidity 40-70%, free access to water and normal diet. is One day before the test, mice were divided into vehicle control group and test article group (n=5/group) according to body weight and baseline plasma Lp(a) concentration. Mice were orally administered with vehicle (normal saline, 10 mL/kg) or test compound (prepared with normal saline to 3 or 0.5 mg/mL, each mouse received 10 mL/kg), once daily (9:00 am) for 3 consecutive days, and blood was collected to determine the change of serum Lp(a). Eight hours after the last dose, 10 μL of blood was collected from the tail vein and transferred to a 1.5 mL centrifuge tube containing 90 μL of normal saline, mixed well, and left to stand on ice for 30 min. The above samples were centrifuged at 4° C., 3000 rpm for 10 min, and the supernatant was collected and placed on ice. The Lp(a) concentration in the supernatant was measured by double-antibody sandwich ELISA using an anti-apo(a) capture antibody and an HRP-conjugated anti-ApoB detection antibody, with TMB for color development. The reaction was stopped with 1 N sulfuric acid, and the OD value was read at 450 nm on a Tecan microplate reader. Inhibition rate was calculated for each dosing group. Inhibition rate (%)=(vehicle control group Lp(a) concentration or self pre-dose Lp(a) concentration post-dose Lp(a) concentration)/vehicle control group Lp(a) concentration or self pre-dose Lp(a) concentration*100.

[2] = 5 mg/kg oral once daily for 3 days

Lp(a) assembly in HepG2 cells overexpressing ApoA protein, sequence (P08519 20-2040): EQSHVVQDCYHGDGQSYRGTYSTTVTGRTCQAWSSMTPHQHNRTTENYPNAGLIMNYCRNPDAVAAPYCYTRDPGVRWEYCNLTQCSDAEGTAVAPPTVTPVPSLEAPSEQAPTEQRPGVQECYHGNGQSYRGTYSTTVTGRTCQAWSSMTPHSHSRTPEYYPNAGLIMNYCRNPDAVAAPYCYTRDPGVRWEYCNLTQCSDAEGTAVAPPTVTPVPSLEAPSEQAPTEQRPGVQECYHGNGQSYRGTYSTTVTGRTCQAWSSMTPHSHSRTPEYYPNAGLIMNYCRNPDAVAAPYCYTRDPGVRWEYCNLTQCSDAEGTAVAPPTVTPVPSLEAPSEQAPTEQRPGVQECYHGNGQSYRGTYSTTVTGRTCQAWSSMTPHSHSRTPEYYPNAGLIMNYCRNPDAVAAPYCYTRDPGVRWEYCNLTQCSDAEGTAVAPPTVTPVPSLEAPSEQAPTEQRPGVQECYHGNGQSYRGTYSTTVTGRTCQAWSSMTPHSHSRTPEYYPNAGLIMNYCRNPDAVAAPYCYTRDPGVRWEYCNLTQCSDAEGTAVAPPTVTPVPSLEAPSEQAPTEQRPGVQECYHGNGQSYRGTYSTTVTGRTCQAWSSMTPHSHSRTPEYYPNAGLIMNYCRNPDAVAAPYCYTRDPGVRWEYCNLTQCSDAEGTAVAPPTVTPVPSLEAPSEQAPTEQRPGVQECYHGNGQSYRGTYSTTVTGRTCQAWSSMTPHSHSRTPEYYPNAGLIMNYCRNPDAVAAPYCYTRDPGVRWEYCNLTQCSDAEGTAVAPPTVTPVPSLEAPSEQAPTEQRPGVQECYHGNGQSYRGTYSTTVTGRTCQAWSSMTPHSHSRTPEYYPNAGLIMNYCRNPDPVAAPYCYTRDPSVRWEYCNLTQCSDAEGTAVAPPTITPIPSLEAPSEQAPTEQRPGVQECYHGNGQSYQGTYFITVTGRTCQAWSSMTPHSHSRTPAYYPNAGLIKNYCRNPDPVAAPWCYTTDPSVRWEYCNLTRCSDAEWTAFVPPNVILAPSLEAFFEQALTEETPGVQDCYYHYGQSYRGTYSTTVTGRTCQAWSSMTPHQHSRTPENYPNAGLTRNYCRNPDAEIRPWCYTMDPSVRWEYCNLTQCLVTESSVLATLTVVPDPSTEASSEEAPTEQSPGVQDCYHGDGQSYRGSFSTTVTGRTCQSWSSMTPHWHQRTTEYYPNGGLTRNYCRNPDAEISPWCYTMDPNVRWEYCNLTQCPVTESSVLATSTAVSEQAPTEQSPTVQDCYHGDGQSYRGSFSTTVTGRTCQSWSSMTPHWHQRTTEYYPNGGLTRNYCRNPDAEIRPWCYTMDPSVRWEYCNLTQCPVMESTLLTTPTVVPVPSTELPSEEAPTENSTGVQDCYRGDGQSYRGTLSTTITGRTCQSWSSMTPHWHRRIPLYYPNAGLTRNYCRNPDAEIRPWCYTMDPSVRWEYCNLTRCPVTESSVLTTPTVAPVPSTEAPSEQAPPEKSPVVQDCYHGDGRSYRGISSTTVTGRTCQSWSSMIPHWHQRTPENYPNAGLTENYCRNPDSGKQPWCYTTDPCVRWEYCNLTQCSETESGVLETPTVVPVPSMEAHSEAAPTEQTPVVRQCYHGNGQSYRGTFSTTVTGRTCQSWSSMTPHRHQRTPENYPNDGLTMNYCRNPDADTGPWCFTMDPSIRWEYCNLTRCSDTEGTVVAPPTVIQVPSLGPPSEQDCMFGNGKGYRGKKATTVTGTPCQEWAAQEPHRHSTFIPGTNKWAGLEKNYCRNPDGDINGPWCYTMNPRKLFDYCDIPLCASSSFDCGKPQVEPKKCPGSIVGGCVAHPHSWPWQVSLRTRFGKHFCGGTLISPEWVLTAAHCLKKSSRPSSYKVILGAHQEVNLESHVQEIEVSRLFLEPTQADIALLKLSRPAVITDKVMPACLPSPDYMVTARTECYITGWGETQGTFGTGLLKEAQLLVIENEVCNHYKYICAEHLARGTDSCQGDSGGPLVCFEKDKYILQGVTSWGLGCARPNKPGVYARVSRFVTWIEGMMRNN

SMILES	IC50 [1] [nM]	Lp(a) Inhibition Rate (serum Lp(a); [2]) [%]	Lp(a) Inhibition Rate (serum Lp(a); 30 mg/kg oral once daily for 3 days) [%]
O=C(O)[C@@H](Cc1cccc(CCN(CCOc2cccc(C[C@H](C(=O)O)[C@H]3CCNC3)c2)C(=O)Cc2cccc(C[C@H](C(=O)O)[C@H]3CCNC3)c2)c1)[C@H]1CCNC1 [Compound 100, (S)-3-(3-(2-((3-((S)-2-carboxy-2-((R)-pyrrolidin-3-yl)ethyl)phenethyl)(2-(3-((S)-2-carboxy-2-((R)-pyrrolidin-3-yl)ethyl)phenoxy)ethyl)amino)-2-oxoethyl)phenyl)-2-((R)-pyrrolidin-3-yl)propanoic acid]	1.12	86	
O=C(O)[C@@H](Cc1cc(F)cc(CC(=O)N(CCOc2cc(F)cc(C[C@H](C(=O)O)[C@H]3CCNC3)c2)Cc2cc(F)cc(C[C@H](C(=O)O)[C@H]3CCNC3)c2)c1)[C@H]1CCNC1 [Compound 152, (S)-3-(3-(2-((3-((S)-2-carboxy-2-((R)-pyrrolidin-3-yl)ethyl)-5-fluorobenzyl)(2-(3-((S)-2-carboxy-2-((R)-pyrrolidin-3-yl)ethyl)-5-fluorophenoxy)ethyl)amino)-2-oxoethyl)-5-fluorophenyl)-2-((R)-pyrrolidin-3-yl)propanoic acid]	1.26	90	
O=C(O)[C@@H](Cc1cccc(CC(=O)N(CCOc2cccc(C[C@H](C(=O)O)[C@H]3CCNC3)c2)CCOc2cccc(C[C@H](C(=O)O)[C@H]3CCNC3)c2)c1)[C@H]1CCNC1 [Compound 111, (2S,2′S)-3,3′-(((((2-(3-((S)-2-carboxy-2-((R)-pyrrolidin-3-yl)ethyl)phenyl)acetyl)azanediyl)bis(ethane-2,1-diyl))bis(oxy))bis(3,1-phenylene))bis(2-((R)-pyrrolidin-3-yl)propanoic acid)]	1.02	92	
O=C(O)[C@@H](Cc1cccc(OCCN(CCOc2cccc(C[C@H](C(=O)O)[C@H]3CCNC3)c2)C(=O)COc2cccc(C[C@H](C(=O)O)[C@H]3CCNC3)c2)c1)[C@H]1CCNC1 [Compound 113, (2S,2′S)-3,3′-(((((2-(3-((S)-2-carboxy-2-((R)-pyrrolidin-3-yl)ethyl)phenoxy)acetyl)azanediyl)bis(ethane-2,1-diyl))bis(oxy))bis(3,1-phenylene))bis(2-((R)-pyrrolidin-3-yl)propanoic acid)]	1.17	79	
O=C(O)[C@@H](Cc1cccc(CN(CCOc2cccc(C[C@H](C(=O)O)[C@H]3CCNC3)c2)C(=O)Cc2cc(C[C@H](C(=O)O)[C@H]3CCNC3)cs2)c1)[C@H]1CCNC1 [Compound 178, ((S)-3-(5-(2-((3-((S)-2-carboxy-2-((R)-pyrrolidin-3-yl)ethyl)benzyl)(2-(3-((S)-2-carboxy-2-((R)-pyrrolidin-3-yl)ethyl)phenoxy)ethyl)amino)-2-oxoethyl)thiophen-3-yl)-2-((R)-pyrrolidin-3-yl)propanoic acid)]		84	
O=C(O)[C@@H](Cc1cccc(OCCN(CCOc2cccc(C[C@H](C(=O)O)[C@H]3CCNC3)c2)C(=O)Oc2cccc(C[C@H](C(=O)O)[C@H]3CCNC3)c2)c1)[C@H]1CCNC1 [Compound 163, (2S,2′S)-3,3′-((((((3-((S)-2-carboxy-2-((R)-pyrrolidin-3-yl)ethyl)phenoxy)carbonyl)azanediyl)bis(ethane-2,1-diyl))bis(oxy))bis(3,1-phenylene))bis(2-((R)-pyrrolidin-3-yl)propanoic acid)]		81	
O=C(O)[C@@H](Cc1cccc(CN(Cc2cccc(C[C@H](C(=O)O)[C@H]3CCNC3)c2)C(=O)COc2cccc(C[C@H](C(=O)O)[C@H]3CCNC3)c2)c1)[C@H]1CCNC1 [Compound 95, (2S,2′S)-3,3′-((((2-(3-((S)-2-carboxy-2-((R)-pyrrolidin-3-yl)ethyl)phenoxy)acetyl)azanediyl)bis(methylene))bis(3,1-phenylene))bis(2-((R)-pyrrolidin-3-yl)propanoic acid)]	0.68		95
[2H]C([2H])(c1cccc(CC(=O)N(CCOc2cccc(C([2H])([2H])[C@H](C(=O)O)[C@H]3CCNC3)c2)Cc2cccc(C([2H])([2H])[C@H](C(=O)O)[C@H]3CCNC3)c2)c1)[C@H](C(=O)O)[C@H]1CCNC1 [Compound 190, (S)-3-(3-(2-((3-((S)-2-carboxy-2-((R)-pyrrolidin-3-yl)ethyl-1,1-d2)benzyl)(2-(3-((S)-2-carboxy-2-((R)-pyrrolidin-3-yl)ethyl-1,1-d2)phenoxy)ethyl)amino)-2-oxoethyl)phenyl)-2-((R)-pyrrolidin-3-yl)propanoic-3,3-d2 acid]		83	

More lines, main results first:

IC50 [1] [nM]	SMILES	Lp(a) Inhibition Rate (serum Lp(a); [2]) [%]	Lp(a) Inhibition Rate (serum Lp(a); 30 mg/kg oral once daily for 3 days) [%]
1.89	O=C(O)[C@@H](Cc1cccc(CCN(CCOCc2cccc(C[C@H](C(=O)O)[C@H]3CCNC3)c2)C(=O)Cc2cccc(C[C@H](C(=O)O)[C@H]3CCNC3)c2)c1)[C@H]1CCNC1 [Compound 161, (S)-3-(3-(2-((2-((3-((S)-2-carboxy-2-((R)-pyrrolidin-3-yl)ethyl)benzyl)oxy)ethyl)(3-((S)-2-carboxy-2-((R)-pyrrolidin-3-yl)ethyl)phenethyl)amino)-2-oxoethyl)phenyl)-2-((R)-pyrrolidin-3-yl)propanoic acid]	83	
1.26	O=C(O)[C@@H](Cc1cccc(CC(=O)N(CCOc2cccc(C[C@H](C(=O)O)[C@H]3CCNC3)c2)Cc2cc(C[C@H](C(=O)O)[C@H]3CCNC3)cs2)c1)[C@H]1CCNC1 [Compound 177, (S)-3-(3-(2-((2-(3-((S)-2-carboxy-2-((R)-pyrrolidin-3-yl)ethyl)phenoxy)ethyl)((4-((S)-2-carboxy-2-((R)-pyrrolidin-3-yl)ethyl)thiophen-2-yl)methyl)amino)-2-oxoethyl)phenyl)-2-((R)-pyrrolidin-3-yl)propanoic acid]	90	
2	O=C(O)[C@@H](Cc1cccc(CN(CCOc2cccc(C[C@H](C(=O)O)[C@H]3CCNC3)c2)C(=O)Sc2cccc(C[C@H](C(=O)O)[C@H]3CCNC3)c2)c1)[C@H]1CCNC1 [Compound 138, (S)-3-(3-(2-((3-((S)-2-carboxy-2-((R)-pyrrolidin-3-yl)ethyl)benzyl)(((3-((S)-2-carboxy-2-((R)-pyrrolidin-3-yl)ethyl)phenyl)thio)carbonyl)amino)ethoxy)phenyl)-2-((R)-pyrrolidin-3-yl)propanoic acid]	88	
1.81	COc1cc(CC(=O)N(CCOc2cc(C[C@H](C(=O)O)[C@H]3CCNC3)cc(OC)c2)Cc2cc(C[C@H](C(=O)O)[C@H]3CCNC3)cc(OC)c2)cc(C[C@H](C(=O)O)[C@H]2CCNC2)c1 [Compound 176, (S)-3-(3-(2-((3-((S)-2-carboxy-2-((R)-pyrrolidin-3-yl)ethyl)-5-methoxybenzyl)(2-(3-((S)-2-carboxy-2-((R)-pyrrolidin-3-yl)ethyl)-5-methoxyphenoxy)ethyl)amino)-2-oxoethyl)-5-methoxyphenyl)-2-((R)-pyrrolidin-3-yl)propanoic acid]	78	
